biological target: BRD4 (BDI_K57-E168) (Homo sapiens, UniProt O60885); test: TR-FRET bromodomain binding assay, BRD4 BDI
Experimental: A time-resolved fluorescence resonance energy transfer (TR-FRET) assay was used to determine the affinities of compounds of the Examples listed in Table 1 for each bromodomain of BRD4. […] An Alexa647-labeled BET-inhibitor was used as the fluorescent probe in the assay.
(§1) Compound dilution series were prepared in DMSO via an approximately 3-fold serial dilution. Compound dilutions were added directly into white, low-volume assay plates (Perkin Elmer Proxiplate 384 Plus #6008280) using a Labcyte Echo in conjunction with Labcyte Access and Thermo Multidrop CombinL robotics. Compounds were then suspended in eight microliters (μL) of assay buffer (20 mM Sodium Phosphate, pH 6.0, 50 mM NaCl, 1 mM Ethylenediaminetetraacetic acid disodium salt dihydrate, 0.01% Triton X-100, 1 mM DL-Dithiothreitol) containing His-tagged bromodomain, Europium-conjugated anti-His antibody (Invitrogen PV5596) and Alexa-647-conjugated probe.
After a one-hour equilibration at room temperature, TR-FRET ratios were determined using an Envision multilabel plate reader (Ex 340, Em 495/520).
TR-FRET data were normalized to the means of 24 no-compound controls (“high”) and 8 controls containing 1 μM un-labeled probe (“low”). Percent inhibition was plotted as a function of compound concentration and the data were fit with the 4 parameter logistic equation to obtain IC50s. Inhibition constants (Ki) were calculated from the IC50s, probe Kd and probe concentration.
Compound dilution series for Compounds A-E were prepared in DMSO via an approximately 3-fold serial dilution from 0.47 mM to 7.8 nM.
as §1, with “Compound” for “Compound dilution series were prepared in DMSO via an approximately 3-fold serial dilution. Compound”
TR-FRET data were normalized to the means of 24 no-compound controls (“high”) and 8 controls containing 1 μM un-labeled probe (“low”). Percent inhibition was plotted as a function of compound concentration and the data were fit with the 4 parameter logistic equation to obtain IC50s. Inhibition constants (Ki) were calculated from the IC50s, probe Kd and probe concentration. Typical Z′ values were between 0.65 and 0.75. The minimum significant ratio was determined to evaluate assay reproducibility (Eastwood et al., (2006) J Biomol Screen, 11: 253-261). The MSR was determined to be 2.03 for BDI and 1.93 for BDII, and a moving MSR (last six run MSR overtime) for both BDI and BDII was typically <3.

First: CC(=O)NC1CC2(C1)CC(Nc1cc(=O)n(C)cc1-c1cc(C(C)(C)O)ccc1Oc1c(C)cccc1C)C2 (stereo not drawn) [Example 10, N-[6-({5-[2-(2,6-dimethylphenoxy)-5-(2-hydroxypropan-2-yl)phenyl]-1-methyl-2-oxo-1,2-dihydropyridin-4-yl}amino)spiro[3.3]heptan-2-yl]acetamide]
Second: CC(=O)N1CCC(Nc2cc(=O)n(C)cc2-c2cc(C(C)(C)O)ccc2Oc2c(C)cccc2C)C1 (stereo not drawn) [Example 14, 4-[(1-acetylpyrrolidin-3-yl)amino]-5-[2-(2,6-dimethylphenoxy)-5-(2-hydroxypropan-2-yl)phenyl]-1-methylpyridin-2(1H)-one]
The Ki of the first is 1.5-fold higher: 2330 nM for the first, 1550 nM for the second.

Compared with `Cc1cccc(C)c1Oc1ccc(C(C)(C)O)cc1-c1cn(C)c(=O)cc1NC1CCN(C(=O)OC(C)(C)C)C1` (stereo not drawn) [Example 11, tert-butyl 3-({5-[2-(2,6-dimethylphenoxy)-5-(2-hydroxypropan-2-yl)phenyl]-1-methyl-2-oxo-1,2-dihydropyridin-4-yl}amino)pyrrolidine-1-carboxylate], `Cc1cccc(C)c1Oc1ccc(C(C)(C)O)cc1-c1cn(C)c(=O)cc1NC1CCN(S(C)(=O)=O)C1` (stereo not drawn) [Example 12, 5-[2-(2,6-dimethylphenoxy)-5-(2-hydroxypropan-2-yl)phenyl]-4-{[1-(methanesulfonyl)pyrrolidin-3-yl]amino}-1-methylpyridin-2(1H)-one] is 2.3-fold lower in Ki: 1270 nM for the first, 553 nM for the second. The second binds more tightly here.

Going from `CC(=O)N[C@H]1CC[C@H](N(C)c2cc(=O)n(C)cc2-c2cc(C(C)(C)O)ccc2Oc2c(C)cc(F)cc2C)CC1` [Example 13, N-{trans-4-[{5-[2-(4-fluoro-2,6-dimethylphenoxy)-5-(2-hydroxypropan-2-yl)phenyl]-1-methyl-2-oxo-1,2-dihydropyridin-4-yl}(methyl)amino]cyclohexyl}acetamide] to `CC(=O)N[C@H]1CC[C@H](Nc2cc(=O)n(C)cc2-c2cc(C(C)(C)O)ccc2Oc2c(C)cc(F)cc2C)CC1` [Example 19, N-[trans-4-({5-[2-(4-fluoro-2,6-dimethylphenoxy)-5-(2-hydroxypropan-2-yl)phenyl]-1-methyl-2-oxo-1,2-dihydropyridin-4-yl}amino)cyclohexyl]acetamide], the Ki falls from > 13000 nM to 2890 nM. The second binds more tightly here.

First: Cc1cc(F)cc(C)c1Oc1ccc(C(C)(C)O)cc1-c1cn(C)c(=O)cc1O[C@H]1CC[C@H](CNC(=O)OC(C)(C)C)CC1 [Example 15, tert-butyl [trans-4-({5-[2-(4-fluoro-2,6-dimethylphenoxy)-5-(2-hydroxypropan-2-yl)phenyl]-1-methyl-2-oxo-1,2-dihydropyridin-4-yl}oxy)cyclohexyl]methylcarbamate]
Second: CC(=O)N(C)[C@H]1CC[C@H](Oc2cc(=O)n(C)cc2-c2cc(C(C)(C)O)ccc2Oc2c(C)cc(F)cc2C)CC1 [Example 16, N-[trans-4-({5-[2-(4-fluoro-2,6-dimethylphenoxy)-5-(2-hydroxypropan-2-yl)phenyl]-1-methyl-2-oxo-1,2-dihydropyridin-4-yl}oxy)cyclohexyl]-N-methylacetamide]
The Ki of the first is 2.1-fold higher: 6020 nM for the first, 2830 nM for the second. The second binds more tightly here.

First: CC(=O)N[C@H]1CC[C@H](Oc2cc(=O)n(C)cc2-c2cc(C(C)(C)O)cnc2Oc2c(C)cc(C(C)(C)O)cc2C)CC1 [Example 17, N-[trans-4-({5′-(2-hydroxypropan-2-yl)-2′-[4-(2-hydroxypropan-2-yl)-2,6-dimethylphenoxy]-1-methyl-6-oxo[1,6-dihydro[3,3′-bipyridine]]-4-yl}oxy)cyclohexyl]acetamide]
Second: COC(=O)N[C@H]1CC[C@H](Oc2cc(=O)n(C)cc2-c2cc(C(C)(C)O)cnc2Oc2c(C)cc(C(C)(C)O)cc2C)CC1 [Example 25, methyl [trans-4-({5′-(2-hydroxypropan-2-yl)-2′-[4-(2-hydroxypropan-2-yl)-2,6-dimethylphenoxy]-1-methyl-6-oxo[1,6-dihydro[3,3′-bipyridine]]-4-yl}oxy)cyclohexyl]carbamate]
The Ki of the first is 1.9-fold lower: 1170 nM for the first, 2220 nM for the second. The first binds more tightly here.

`CC(=O)N[C@H]1CC[C@H](Oc2cc(=O)n(C)cc2-c2cc(C(C)(C)O)ccc2Oc2c(C)cc(C(C)(C)O)cc2C)CC1` [Example 18, N-{trans-4-[(5-{5-(2-hydroxypropan-2-yl)-2-[4-(2-hydroxypropan-2-yl)-2,6-dimethylphenoxy]phenyl}-1-methyl-2-oxo-1,2-dihydropyridin-4-yl)oxy]cyclohexyl}acetamide] and `COC(=O)N[C@H]1CC[C@H](Oc2cc(=O)n(C)cc2-c2cc(C(C)(C)O)ccc2Oc2c(C)cc(C(C)(C)O)cc2C)CC1` [Example 20, methyl {trans-4-[(5-{5-(2-hydroxypropan-2-yl)-2-[4-(2-hydroxypropan-2-yl)-2,6-dimethylphenoxy]phenyl}-1-methyl-2-oxo-1,2-dihydropyridin-4-yl)oxy]cyclohexyl}carbamate] are within 1.5-fold of each other in Ki: 982 nM for the first, 1090 nM for the second.

First: CC(=O)NC[C@@H]1CC[C@H](Oc2cc(=O)n(C)cc2-c2cc(C(C)(C)O)ccc2Oc2c(C)cc(F)cc2C)[C@H]1C [Example 22, N-{[(1R,2S,3S)-3-({5-[2-(4-fluoro-2,6-dimethylphenoxy)-5-(2-hydroxypropan-2-yl)phenyl]-1-methyl-2-oxo-1,2-dihydropyridin-4-yl}oxy)-2-methylcyclopentyl]methyl}acetamide]
Second: C=CC(=O)N[C@H]1CC[C@H](Oc2cc(=O)n(C)cc2-c2cc(C(C)(C)O)ccc2Oc2c(C)cc(F)cc2C)CC1 [Example 28, N-[trans-4-({5-[2-(4-fluoro-2,6-dimethylphenoxy)-5-(2-hydroxypropan-2-yl)phenyl]-1-methyl-2-oxo-1,2-dihydropyridin-4-yl}oxy)cyclohexyl]prop-2-enamide]
The Ki of the first is 1.9-fold higher: 2870 nM for the first, 1520 nM for the second. The second binds more tightly here.

`Cc1cc(F)cc(C)c1Oc1ccc(C(C)(C)O)cc1-c1cn(C)c(=O)cc1NC1CCC(C)(O)CC1` (stereo not drawn) [Example 23, 5-[2-(4-fluoro-2,6-dimethylphenoxy)-5-(2-hydroxypropan-2-yl)phenyl]-4-[(trans-4-hydroxy-4-methylcyclohexyl)amino]-1-methylpyridin-2(1H)-one] and `Cc1cc(F)cc(C)c1Oc1ccc(C(C)(C)O)cc1-c1cn(C)c(=O)cc1O[C@H]1CC[C@H](N2CC(C)(C)C2=O)CC1` [Example 30, 4-{[trans-4-(3,3-dimethyl-2-oxoazetidin-1-yl)cyclohexyl]oxy}-5-[2-(4-fluoro-2,6-dimethylphenoxy)-5-(2-hydroxypropan-2-yl)phenyl]-1-methylpyridin-2(1H)-one] are within 1.5-fold of each other in Ki: 3630 nM for the first, 3300 nM for the second.

`Cc1cc(F)cc(C)c1Oc1ccc(C(C)(C)O)cc1-c1cn(C)c(=O)cc1O[C@H]1CC[C@H](N2CCCC2=O)CC1` [Example 24, 5-[2-(4-fluoro-2,6-dimethylphenoxy)-5-(2-hydroxypropan-2-yl)phenyl]-1-methyl-4-{[trans-4-(2-oxopyrrolidin-1-yl)cyclohexyl]oxy}pyridin-2(1H)-one] and `Cc1cc(F)cc(C)c1Oc1ccc(C(C)(C)O)cc1-c1cn(C)c(=O)cc1O[C@H]1CC[C@H](N2CCCCC2=O)CC1` [Example 29, 5-[2-(4-fluoro-2,6-dimethylphenoxy)-5-(2-hydroxypropan-2-yl)phenyl]-1-methyl-4-{[trans-4-(2-oxopiperidin-1-yl)cyclohexyl]oxy}pyridin-2(1H)-one] are within 1.5-fold of each other in Ki: 2860 nM for the first, 2220 nM for the second.

Going from `COCC(=O)N1CCC(Oc2cc(=O)n(C)cc2-c2cc(C(C)(C)O)cnc2Oc2c(C)cc(F)cc2C)CC1` [Example 26, 2′-(4-fluoro-2,6-dimethylphenoxy)-5′-(2-hydroxypropan-2-yl)-4-{[1-(methoxyacetyl)piperidin-4-yl]oxy}-1-methyl[3,3′-bipyridin]-6(1H)-one] to `Cc1cc(F)cc(C)c1Oc1ccc(C(C)(C)O)cc1-c1cn(C)c(=O)cc1O[C@H]1CC[C@H](N2CCCNC2=O)CC1` [Example 31, 1-[trans-4-({5-[2-(4-fluoro-2,6-dimethylphenoxy)-5-(2-hydroxypropan-2-yl)phenyl]-1-methyl-2-oxo-1,2-dihydropyridin-4-yl}oxy)cyclohexyl]tetrahydropyrimidin-2(1H)-one], the Ki falls from 8850 nM to 2410 nM (3.7-fold).

For `Cc1cccc(C)c1Oc1ccc(C(C)(C)O)cc1-c1cn(C)c(=O)cc1O[C@H]1CC[C@H](N2CCCC2=O)CC1` [Example 27, 5-[2-(2,6-dimethylphenoxy)-5-(2-hydroxypropan-2-yl)phenyl]-1-methyl-4-{[trans-4-(2-oxopyrrolidin-1-yl)cyclohexyl]oxy}pyridin-2(1H)-one], the Ki was 1900 nM.

Reference: US20210047304A1, “Bromodomain Inhibitors” (AbbVie Inc., priority 2016, published 2021)
